Measurements from the supplement of paper PMC8671470.

Experiments:
Details in all cases: 72 h
[1] = system: LAMA-84; test: cell viability (% survival relative to DMSO control, bortezomib = 0%); higher = less cytotoxic
Method in brief: (§1)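 In 384-well plates pre-printed with compounds at 1, 10, 100, 1000 or 10000 nM, duplicate wells received cells from 10 AML and 5 CML lines at densities within the linear growth range. The plates stayed at 37 °C with 5% CO2 for 72 h before CellTiter-Glo luminescence was recorded. Each entry is averaged percent survival. Scaling placed vehicle at 100% and a 10 µM positive control at 0%.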

[2] = system: Mono-Mac-6; test: as above
Method in brief: as §1

[3] = system: BV-173; test: as above
Method in brief: as §1

[4] = system: HL-60; test: area under dose-response curve (viability, 1 nM-10 uM) (fraction (0-1)); higher = more sensitive
Method in brief: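 A rescreen of the full library used HL-60 cells in RPMI 1640 with 10% FBS on 384-well plates, run in duplicate at five tenfold concentrations (1–10,000 nM). Each screen included DMSO or 100 nM of one of three metabolic inhibitors and ran 72 h at 37 °C, 5% CO2. CellTiter-Glo viability was scaled between DMSO and 10 μM proteasome-inhibitor wells. Any area under the curve comes from four-parameter log-logistic fits with drc and PharmacoGx.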

[5] = co-treatment: GSK2194069 100 nM
[6] = co-treatment: pictilisib 100 nM

| SMILES | cell viability ([1]; 1 nM) | cell viability ([1]; 10 nM) | cell viability ([1]; 100 nM) | cell viability ([1]; 1000 nM) | cell viability ([1]; 10000 nM) | cell viability ([2]; 1 nM) | cell viability ([2]; 10 nM) | cell viability ([2]; 100 nM) | cell viability ([2]; 1000 nM) | cell viability ([2]; 10000 nM) | cell viability ([3]; 1 nM) | cell viability ([3]; 10 nM) | cell viability ([3]; 100 nM) | cell viability ([3]; 1000 nM) | cell viability ([3]; 10000 nM) | area under dose-response curve ([4]; co-treatment: AZD3965 100 nM) | area under dose-response curve ([4]; co-treatment: DMSO vehicle) | area under dose-response curve [4, 5] | area under dose-response curve [4, 6] |
| --- | --- | --- | --- | --- | --- | --- | --- | --- | --- | --- | --- | --- | --- | --- | --- | --- | --- | --- | --- |
| OC[C@H]1O[C@@H](n2cnc3c2N=CNC[C@H]3O)C[C@@H]1O [Pentostatin] | 102% | 99.6% | 111% | 101% | 108% | 104% | 94.2% | 105% | 91.9% | 99.3% | 102% | 97.4% | 117% | 94.5% | 101% | < 0.0301 | < 0.0301 | < 0.0301 | < 0.0301 |
| CC(C)CC(=O)N[C@H](C(=O)N[C@H](C(=O)N[C@@H](CC(C)C)[C@@H](O)CC(=O)N[C@@H](C)C(=O)N[C@@H](CC(C)C)[C@@H](O)CC(=O)O)C(C)C)C(C)C [Pepstatin A] | 92.2% | 87.2% | 103% | 96.2% | 103% | 101% | 83.7% | 104% | 100% | 101% | 94.2% | 86.5% | 106% | 101% | 88.4% | < 0.0301 | < 0.0301 | < 0.0301 | < 0.0301 |
| Cc1cccc(Nc2cc(Cl)nc(SCC(=O)O)n2)c1C [Pirinixic acid] | 100% | 97.7% | 99% | 94.5% | 95% | 105% | 106% | 98.4% | 99.2% | 91.4% | 106% | 90.6% | 104% | 92.1% | 93.5% | < 0.0301 | < 0.0301 | < 0.0301 | < 0.0301 |
| N[C@@H](CC(=O)N1CCn2c(nnc2C(F)(F)F)C1)Cc1cc(F)c(F)cc1F [Sitagliptin] | 93.1% | 99.2% | 94% | 102% | 93.8% | 92.5% | 83.8% | 96.1% | 85.6% | 100% | 89.5% | 103% | 99.9% | 93.4% | 102% | < 0.0301 | < 0.0301 | < 0.0301 | < 0.0301 |
| CCCc1nc(C)c2c(=O)nc(-c3cc(S(=O)(=O)N4CCN(CC)CC4)ccc3OCC)[nH]n12 [Vardenafil] | 92.6% | 95.2% | 101% | 92.2% | 97.8% | 102% | 83% | 106% | 95.1% | 102% | 98.3% | 80.3% | 101% | 108% | 82.8% | – | – | – | – |
| CCc1c(C(=O)C(N)=O)c2c(OCC(=O)O)cccc2n1Cc1ccccc1 [Varespladib] | 95.6% | 100% | 103% | 101% | 81.3% | 99.1% | 101% | 93.7% | 100% | 89% | 90.6% | 104% | 85.4% | 99.3% | 88.7% | – | – | – | – |
| N#Cc1ccc(N(Cc2ccc(Br)cc2)n2cnnc2)cc1 [YM511] | 106% | 100% | 93.4% | 101% | 103% | 110% | 102% | 97% | 106% | 93.9% | 92% | 95.3% | 101% | 107% | 100% | – | – | – | – |
| N#C/C(=C\c1ccc(O)cc1)C(=O)O [alpha-cyano-4-hydroxycinnamic acid] | 96.5% | 107% | 96.7% | 101% | 101% | 98.2% | 101% | 103% | 103% | 104% | 96.5% | 103% | 84.2% | 80.1% | 113% | < 0.0301 | < 0.0301 | < 0.0301 | < 0.0301 |
